Data reported in ChEMBL document CHEMBL3885881, “DrugMatrix”.

Organism: Rattus norvegicus
Test: DrugMatrix - Regimen: Daily Repeat
Assay type: toxicity, organism-based, Sprague-Dawley
Parameters: regimen Daily Repeat, gender Male, age 6-8 weeks
Conditions: in vivo, po, route oral GAVAGE, […]; for ABSOLUTE BASOPHIL / ABSOLUTE EOSINOPHIL / ABSOLUTE LYMPHOCYTE / ABSOLUTE MONOCYTE / ABSOLUTE SEGMENTED NEUTROPHIL / BASOPHIL / EOSINOPHIL / ERYTHROCYTE COUNT / HEMATOCRIT / HEMOGLOBIN / LEUKOCYTE COUNT / LYMPHOCYTE / MEAN CORPUSCULAR HEMOGLOBIN / MEAN CORPUSCULAR HEMOGLOBIN CONCENTRATION / MEAN CORPUSCULAR VOLUME / MONOCYTE / NEUTROPHIL / NUCLEATED RED BLOOD CELLS / PLATELET COUNT: tissue Blood; for ALANINE AMINOTRANSFERASE / ALBUMIN / ALKALINE PHOSPHATASE / ASPARTATE AMINOTRANSFERASE / BLOOD UREA NITROGEN / CARBON DIOXIDE / CHLORIDE / CHOLESTEROL / CREATINE PHOSPHOKINASE / CREATININE / GLUCOSE / LACTATE DEHYDROGENASE / LIPASE / PHOSPHORUS / POTASSIUM / SODIUM / TOTAL BILIRUBIN / TOTAL PROTEIN / URIC ACID: tissue Plasma
[1] = 100 mg/kg, 120 h, dose level Low, time 5 day
[2] = 1000 mg/kg, 72 h, dose level High, time 3 day
[3] = 1000 mg/kg, 120 h, dose level High, time 5 day

CCCC[C@@H](CC)COC(=O)c1ccccc1C(=O)OC[C@@H](CC)CCCC [BIS(2-ETHYLHEXYL)PHTHALATE]
ABSOLUTE BASOPHIL [1]: 0 CELLS/uL
ABSOLUTE EOSINOPHIL [1]: 0 CELLS/uL
ABSOLUTE LYMPHOCYTE [1]: 8094 CELLS/uL
ABSOLUTE MONOCYTE [1]: 0 CELLS/uL
ABSOLUTE SEGMENTED NEUTROPHIL [1]: 772.67 CELLS/uL
BASOPHIL [1]: 0%
EOSINOPHIL [1]: 0%
ERYTHROCYTE COUNT [1]: 5.86 x10E6/uL
HEMATOCRIT [1]: 36.1%
HEMOGLOBIN [1]: 13.63 G/DL
LEUKOCYTE COUNT [1]: 8.87 x10E3/uL
LYMPHOCYTE [1]: 92.33%
MEAN CORPUSCULAR HEMOGLOBIN [1]: 23.33 pg
MEAN CORPUSCULAR HEMOGLOBIN CONCENTRATION [1]: 37.8 G/DL
MEAN CORPUSCULAR VOLUME [1]: 61.67 fL
MONOCYTE [1]: 0%
NEUTROPHIL [1]: 7.67%
NUCLEATED RED BLOOD CELLS [1]: 0 /100WBC
PLATELET COUNT [1]: 682.33 x10E3/uL
ALANINE AMINOTRANSFERASE [1]: 80 u/L
ALBUMIN [1]: 4.27 G/DL
ALKALINE PHOSPHATASE [1]: 577.33 u/L
ASPARTATE AMINOTRANSFERASE [1]: 98.33 u/L
BLOOD UREA NITROGEN [1]: 14.67 mg/dL
CARBON DIOXIDE [1]: 35.67 mmol/L
CHLORIDE [1]: 99 MEQ/L
CHOLESTEROL [1]: 41 mg/dL
CREATINE PHOSPHOKINASE [1]: 172 u/L
CREATININE [1]: 0.21 mg/dL
GLUCOSE [1]: 156.33 mg/dL
LACTATE DEHYDROGENASE [1]: 135.33 u/L
LIPASE [1]: 22.33 u/L
PHOSPHORUS [1]: 10.4 mg/dL
POTASSIUM [1]: 5.25 MEQ/L
SODIUM [1]: 144.53 MEQ/L
TOTAL BILIRUBIN [1]: 0.17 mg/dL
TOTAL PROTEIN [1]: 5.63 G/DL
URIC ACID [1]: 0.63 mg/dL
ABSOLUTE BASOPHIL [2]: 0 CELLS/uL
ABSOLUTE EOSINOPHIL [2]: 0 CELLS/uL
ABSOLUTE LYMPHOCYTE [2]: 10510 CELLS/uL
ABSOLUTE MONOCYTE [2]: 28 CELLS/uL
ABSOLUTE SEGMENTED NEUTROPHIL [2]: 628.67 CELLS/uL
BASOPHIL [2]: 0%
EOSINOPHIL [2]: 0%
ERYTHROCYTE COUNT [2]: 5.07 x10E6/uL
HEMATOCRIT [2]: 32.33%
HEMOGLOBIN [2]: 12.8 G/DL
LEUKOCYTE COUNT [2]: 11.17 x10E3/uL
LYMPHOCYTE [2]: 93.67%
MEAN CORPUSCULAR HEMOGLOBIN [2]: 25.3 pg
MEAN CORPUSCULAR HEMOGLOBIN CONCENTRATION [2]: 39.57 G/DL
MEAN CORPUSCULAR VOLUME [2]: 63.8 fL
MONOCYTE [2]: 0.33%
NEUTROPHIL [2]: 6%
NUCLEATED RED BLOOD CELLS [2]: 0 /100WBC
PLATELET COUNT [2]: 532 x10E3/uL
ALANINE AMINOTRANSFERASE [2]: 82 u/L
ALBUMIN [2]: 4.03 G/DL
ALKALINE PHOSPHATASE [2]: 468.67 u/L
ASPARTATE AMINOTRANSFERASE [2]: 94 u/L
BLOOD UREA NITROGEN [2]: 14.67 mg/dL
CARBON DIOXIDE [2]: 26 mmol/L
CHLORIDE [2]: 96.33 MEQ/L
CHOLESTEROL [2]: 44.67 mg/dL
CREATINE PHOSPHOKINASE [2]: 477.67 u/L
CREATININE [2]: 0.2 mg/dL
GLUCOSE [2]: 161.67 mg/dL
LACTATE DEHYDROGENASE [2]: 137 u/L
LIPASE [2]: 8.67 u/L
PHOSPHORUS [2]: 10.3 mg/dL
POTASSIUM [2]: 4.99 MEQ/L
SODIUM [2]: 137.1 MEQ/L
TOTAL BILIRUBIN [2]: 0.0667 mg/dL
TOTAL PROTEIN [2]: 5.33 G/DL
URIC ACID [2]: 0.77 mg/dL
ABSOLUTE BASOPHIL [3]: 0 CELLS/uL
ABSOLUTE EOSINOPHIL [3]: 0 CELLS/uL
ABSOLUTE LYMPHOCYTE [3]: 8272 CELLS/uL
ABSOLUTE MONOCYTE [3]: 65 CELLS/uL
ABSOLUTE SEGMENTED NEUTROPHIL [3]: 663 CELLS/uL
BASOPHIL [3]: 0%
EOSINOPHIL [3]: 0%
ERYTHROCYTE COUNT [3]: 5.57 x10E6/uL
HEMATOCRIT [3]: 34.07%
HEMOGLOBIN [3]: 13.37 G/DL
LEUKOCYTE COUNT [3]: 9 x10E3/uL
LYMPHOCYTE [3]: 92%
MEAN CORPUSCULAR HEMOGLOBIN [3]: 24 pg
MEAN CORPUSCULAR HEMOGLOBIN CONCENTRATION [3]: 39.23 G/DL
MEAN CORPUSCULAR VOLUME [3]: 61.2 fL
MONOCYTE [3]: 0.67%
NEUTROPHIL [3]: 7.33%
NUCLEATED RED BLOOD CELLS [3]: 0 /100WBC
PLATELET COUNT [3]: 1014.67 x10E3/uL
ALANINE AMINOTRANSFERASE [3]: 84.67 u/L
ALBUMIN [3]: 4.23 G/DL
ALKALINE PHOSPHATASE [3]: 412.67 u/L
ASPARTATE AMINOTRANSFERASE [3]: 99 u/L
BLOOD UREA NITROGEN [3]: 14.33 mg/dL
CARBON DIOXIDE [3]: 35.33 mmol/L
CHLORIDE [3]: 100.33 MEQ/L
CHOLESTEROL [3]: 53 mg/dL
CREATINE PHOSPHOKINASE [3]: 324.67 u/L
CREATININE [3]: 0.12 mg/dL
GLUCOSE [3]: 168.33 mg/dL
LACTATE DEHYDROGENASE [3]: 165.33 u/L
LIPASE [3]: 9.33 u/L
PHOSPHORUS [3]: 10.6 mg/dL
POTASSIUM [3]: 5.56 MEQ/L
SODIUM [3]: 144.83 MEQ/L
TOTAL BILIRUBIN [3]: 0.13 mg/dL
TOTAL PROTEIN [3]: 5.77 G/DL
URIC ACID [3]: 0.7 mg/dL
